PubChem BioAssay AID1963872 (Molecular Pharmacology Branch, DTP, NCI, 2024)

System: KRAS patient-derived spheroids with HUVEC/MSC, viability
Assay: Anticancer human tumor 519858-162-T-J1-PDC patient-derived colon adenocarcinoma cell line growth inhibition [KRAS2]
Settings: for viability, T/C: stronger effect = lower value
Summary of the method: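 Combination screen of spheroid viability in tumor-cell co-cultures with endothelial (HUVEC) and mesenchymal stem cell stroma. Each agent was tested in half-log dilutions, topping at clinical Cmax or at 10 microM without a known Cmax.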

[1] = curve of first compound, second compound 0.0316 µM
[2] = curve of first compound, second compound 0.1 µM
[3] = curve of first compound, second compound 0.316 µM
[4] = curve of first compound, second compound 1 µM
[5] = curve of first compound, second compound 3.16 µM
[6] = second compound 0.0316 µM, first compound 0.0316 µM
[7] = second compound 0.0316 µM, first compound 0.1 µM
[8] = second compound 0.0316 µM, first compound 0.316 µM
[9] = second compound 0.0316 µM, first compound 1 µM
[10] = second compound 0.0316 µM, first compound 3.16 µM
[11] = second compound 0.0316 µM, first compound 10 µM
[12] = second compound 0.1 µM, first compound 0.0316 µM
[13] = second compound 0.1 µM, first compound 0.1 µM
[14] = second compound 0.1 µM, first compound 0.316 µM
[15] = second compound 0.1 µM, first compound 1 µM
[16] = second compound 0.1 µM, first compound 3.16 µM
[17] = second compound 0.1 µM, first compound 10 µM
[18] = second compound 0.316 µM, first compound 0.0316 µM
[19] = second compound 0.316 µM, first compound 0.1 µM
[20] = second compound 0.316 µM, first compound 0.316 µM
[21] = second compound 0.316 µM, first compound 1 µM
[22] = second compound 0.316 µM, first compound 3.16 µM
[23] = second compound 0.316 µM, first compound 10 µM
[24] = second compound 1 µM, first compound 0.0316 µM
[25] = second compound 1 µM, first compound 0.1 µM
[26] = second compound 1 µM, first compound 0.316 µM
[27] = second compound 1 µM, first compound 1 µM
[28] = second compound 1 µM, first compound 3.16 µM
[29] = second compound 1 µM, first compound 10 µM
[30] = second compound 3.16 µM, first compound 0.0316 µM
[31] = second compound 3.16 µM, first compound 0.1 µM
[32] = second compound 3.16 µM, first compound 0.316 µM
[33] = second compound 3.16 µM, first compound 1 µM
[34] = second compound 3.16 µM, first compound 3.16 µM
[35] = second compound 3.16 µM, first compound 10 µM
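Further: compound exposure lasted seven days before readout.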
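Wherever viability, T/C is given: 100% = DMSO vehicle control viability.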

SMILES: CC(C)NCC(C(=O)N1CCN(c2ncnc3c2C(C)CC3O)CC1)c1ccc(Cl)cc1 (centres undefined) + C=CC(=O)N1CCN(c2nc(OCC3CCCN3C)nc3c2CCN(c2cccc4cccc(C)c24)C3)CC1CC#N
- IC50 [1]: > 10 µM
- IC50 [2]: > 10 µM
- IC50 [3]: > 10 µM
- IC50 [4]: > 10 µM
- IC50 [5]: 1.93 µM
- viability, T/C [6]: 84.8%
- viability, T/C [7]: 84.9%
- viability, T/C [8]: 79.5%
- viability, T/C [9]: 85.4%
- viability, T/C [10]: 85.9%
- viability, T/C [11]: 77.5%
- viability, T/C [12]: 95.2%
- viability, T/C [13]: 91.6%
- viability, T/C [14]: 78.4%
- viability, T/C [15]: 78%
- viability, T/C [16]: 90.3%
- viability, T/C [17]: 74.6%
- viability, T/C [18]: 64.7%
- viability, T/C [19]: 84.2%
- viability, T/C [20]: 75.5%
- viability, T/C [21]: 90%
- viability, T/C [22]: 82.5%
- viability, T/C [23]: 87%
- viability, T/C [24]: 72%
- viability, T/C [25]: 72.2%
- viability, T/C [26]: 48.3%
- viability, T/C [27]: 70.5%
- viability, T/C [28]: 81.9%
- viability, T/C [29]: 83.3%
- viability, T/C [30]: 70.9%
- viability, T/C [31]: 55.8%
- viability, T/C [32]: 80.8%
- viability, T/C [33]: 55.1%
- viability, T/C [34]: 50.7%
- viability, T/C [35]: 41.5%

SMILES: O=C(c1cc(Cc2n[nH]c(=O)c3ccccc23)ccc1F)N1CCN(C(=O)C2CC2)CC1 + C=CC(=O)N1CCN(c2nc(OCC3CCCN3C)nc3c2CCN(c2cccc4cccc(C)c24)C3)CC1CC#N
- IC50 [1]: > 10 µM
- IC50 [2]: > 10 µM
- IC50 [3]: > 10 µM
- IC50 [4]: > 10 µM
- IC50 [5]: > 10 µM
- viability, T/C [6]: 82.5%
- viability, T/C [7]: 90.2%
- viability, T/C [8]: 80.3%
- viability, T/C [9]: 86.8%
- viability, T/C [10]: 71.2%
- viability, T/C [11]: 93.3%
- viability, T/C [12]: 72.9%
- viability, T/C [13]: 115%
- viability, T/C [14]: 102%
- viability, T/C [15]: 101%
- viability, T/C [16]: 102%
- viability, T/C [17]: 101%
- viability, T/C [18]: 70.3%
- viability, T/C [19]: 94.5%
- viability, T/C [20]: 83.7%
- viability, T/C [21]: 84.5%
- viability, T/C [22]: 85.4%
- viability, T/C [23]: 98.7%
- viability, T/C [24]: 91.2%
- viability, T/C [25]: 71.3%
- viability, T/C [26]: 112%
- viability, T/C [27]: 97.5%
- viability, T/C [28]: 86.9%
- viability, T/C [29]: 96.9%
- viability, T/C [30]: 79.2%
- viability, T/C [31]: 69.4%
- viability, T/C [32]: 60.8%
- viability, T/C [33]: 85.6%
- viability, T/C [34]: 98%
- viability, T/C [35]: 80.2%

SMILES: CC(C)NCC(C(=O)N1CCN(c2ncnc3c2C(C)CC3O)CC1)c1ccc(Cl)cc1 (centres undefined)
- viability, T/C (compound 0.316 µM): 96.2% [middle of 5 runs]
- viability, T/C (compound 1 µM): 89.7% [middle of 5 runs]
- viability, T/C (compound 10 µM): 97.3% [middle of 5 runs]
- IC50 (curve of compound): > 10 µM
